Reference: ChEMBL document CHEMBL5528066, “Discovery of Novel N-(Anthracen-9-ylmethyl) Benzamide Derivatives as ZNF207 Inhibitors Promising in Treating Glioma” (J Med Chem, 2024)
Active and inactive are the calls of the source. No cut-off for these calls is given here.

Key:
[1] = Toxicity in male C57BL/6 mouse assessed as change in cellular structure of kidney at 45 mg/kg, po administered once a day for 2 weeks by H and E staining based analysis; format: organism-based; details: in vivo, 336 h
LN-229 [2] = assay: Inhibition of sphere formation in human LN-229 cells at 4 uM measured after 10 days in well containing 100 cells by microscopic analysis; format: functional, cell-based; details: time 10.0 day
U-251 [3] = assay: Inhibition of sphere formation in human U-251MG cells at 8 uM measured after 10 days in well containing 1 cells by microscopic analysis; format: functional, cell-based; details: time 10.0 day
H4 [4] = assay: Inhibition of sphere formation in human H4 cells at 1 uM measured after 10 days in well containing 10 cells by microscopic analysis; format: functional, cell-based; details: time 10.0 day
[5] = Toxicity in female C57BL/6 mouse assessed as change in cellular structure of intestine at 45 mg/kg, po administered once a day for 2 weeks by H and E staining based analysis; format: organism-based; details: in vivo, 336 h
U-251 [6] = assay: Inhibition of sphere formation in human U-251MG cells at 4 uM measured after 10 days in well containing 1 cells by microscopic analysis; format: functional, cell-based; details: time 10.0 day
[7] = Drug uptake in Sprague-Dawley rat blood at 10 to 90 ng/ml, po administered as single dose and measured after 8 hrs by LC-MS/MS analysis; format: ADME, organism-based; details: in vivo, dose 10-90 ng/ml
LN-229 [8] = assay: Inhibition of sphere formation in human LN-229 cells at 8 uM measured after 10 days in well containing 10 cells by microscopic analysis; format: functional, cell-based; details: time 10.0 day
[9] = Drug concentration in male Sprague-Dawley rat lung at 45 mg/kg, po measured after 8 hrs by LC-MS/MS analysis; format: ADME, organism-based; details: read-out: Ct
H4 [10] = assay: Inhibition of sphere formation in human H4 cells assessed as fold reduction in sphere initiating frequency at 2 uM incubated for 10 days by microscopic analysis relative to control; format: functional; details: time 10 day
U-251 [11] = assay: Induction of apoptosis in human U-251MG cells assessed as apoptotic cells at 2.5 uM incubated for 24 hrs by Annexin V-FITC/PI staining based flow cytometry analysis relative to control; format: functional
[12] = Toxicity in male C57BL/6 mouse assessed as change in cellular structure of spleen at 45 mg/kg, po administered once a day for 2 weeks by H and E staining based analysis; format: organism-based; details: in vivo, 336 h
[13] = Drug concentration in female Sprague-Dawley rat heart at 45 mg/kg, po measured after 8 hrs by LC-MS/MS analysis; format: ADME, organism-based; details: read-out: Ct
LN-229 [14] = assay: Antitumor activity against human LN-229 cells xenografted in BALB/c nude mouse assessed as reduction in proportion of p-H3 positive cells at 150 mg/kg, ip administered twice a week and measured after 49 days by immunohistochemistry analysis; format: functional, organism-based; details: time 49.0 day
[15] = Toxicity in female C57BL/6 mouse assessed as change in cellular structure of thymus at 45 mg/kg, po administered once a day for 2 weeks by H and E staining based analysis; format: organism-based; details: in vivo, 336 h
[16] = Drug concentration in male Sprague-Dawley rat brain at 45 mg/kg, po measured after 8 hrs by LC-MS/MS analysis; format: ADME, organism-based; details: read-out: Ct
MDR1 = assay: Apparent permeability across basolateral to apical side in MDCKII-MDR1 cells at 1 uM incubated for 2 hrs by LC-MS/MS analysis; format: ADME, cell-based, Canis lupus familiaris; details: dog, MDCK-MDR1
[17] = Toxicity in female C57BL/6 mouse assessed as change in cellular structure of lung at 45 mg/kg, po administered once a day for 2 weeks by H and E staining based analysis; format: organism-based; details: in vivo, 336 h
Hs 683 [18] = assay: Inhibition of sphere formation in human Hs 683 cells at 8 uM measured after 10 days in well containing 1 cells by microscopic analysis; format: functional, cell-based; details: time 10.0 day
Hs 683 [19] = assay: Inhibition of sphere formation in human Hs 683 cells at 1 uM measured after 10 days in well containing 1000 cells by microscopic analysis; format: functional, cell-based; details: time 10.0 day
U-251 [20] = assay: Inhibition of sphere formation in human U-251MG cells at 2 uM measured after 10 days in well containing 1000 cells by microscopic analysis; format: functional, cell-based; details: time 10.0 day
H4 [21] = assay: Inhibition of sphere formation in human H4 cells at 2 uM measured after 10 days in well containing 10 cells by microscopic analysis; format: functional, cell-based; details: time 10.0 day
U-251 [22] = assay: Inhibition of sphere formation in human U-251MG cells assessed as fold reduction in sphere initiating frequency at 8 uM incubated for 10 days by microscopic analysis relative to control; format: functional; details: time 10 day
[23] = Drug concentration in female Sprague-Dawley rat liver at 45 mg/kg, po measured after 8 hrs by LC-MS/MS analysis; format: ADME, organism-based; details: read-out: Ct
[24] = Drug concentration in male Sprague-Dawley rat kidney at 45 mg/kg, po measured after 8 hrs by LC-MS/MS analysis; format: ADME, organism-based; details: read-out: Ct
LN-229 [25] = assay: Downregulation of SOX2 protein expression in human LN-229 cells at 2 to 4 uM incubated for 48 hrs by Western blot analysis; format: functional, cell-based; details: dose 2-4 µM
U-937 = assay: Antiproliferative activity against human U-937 cells assessed as inhibition of cell growth incubated for 72 hrs by CCK-8 assay; format: functional, cell-based; details: U-937, 72 h
U-251 [26] = assay: Inhibition of sphere formation in human U-251MG cells assessed as fold reduction in sphere initiating frequency at 1 uM incubated for 10 days by microscopic analysis relative to control; format: functional; details: time 10 day
A549 = assay: Antiproliferative activity against human A549 cells assessed as inhibition of cell growth incubated for 72 hrs by CCK-8 assay; format: functional, cell-based; details: A549, 72 h
Hs 683 [27] = assay: Inhibition of sphere formation in human Hs 683 cells at 8 uM measured after 10 days in well containing 10 cells by microscopic analysis; format: functional, cell-based; details: time 10.0 day
H4 [28] = assay: Inhibition of sphere formation in human H4 cells at 8 uM measured after 10 days in well containing 1 cells by microscopic analysis; format: functional, cell-based; details: time 10.0 day
H4 [29] = assay: Inhibition of sphere formation in human H4 cells at 8 uM measured after 10 days in well containing 10 cells by microscopic analysis; format: functional, cell-based; details: time 10.0 day
LN-229 [30] = assay: Inhibition of sphere formation in human LN-229 cells assessed as fold reduction in sphere initiating frequency at 8 uM incubated for 10 days by microscopic analysis relative to control; format: functional; details: time 10 day
LN-229 [31] = assay: Antiproliferative activity against human LN-229 cells assessed as inhibition of cell growth measured after 72 hrs by CCK-8 assay; format: functional, cell-based; details: LN-229, 72 h
H4 [32] = assay: Inhibition of sphere formation in human H4 cells at 2 uM measured after 10 days in well containing 10000 cells by microscopic analysis; format: functional, cell-based; details: time 10.0 day
LN-229 [33] = assay: Inhibition of sphere formation in human LN-229 cells at 8 uM measured after 10 days in well containing 1 cells by microscopic analysis; format: functional, cell-based; details: time 10.0 day
Hs 683 [34] = assay: Inhibition of sphere formation in human Hs 683 cells at 2 uM measured after 10 days in well containing 10 cells by microscopic analysis; format: functional, cell-based; details: time 10.0 day
[35] = Drug concentration in male Sprague-Dawley rat heart at 45 mg/kg, po measured after 8 hrs by LC-MS/MS analysis; format: ADME, organism-based; details: read-out: Ct
Hs 683 [36] = assay: Inhibition of sphere formation in human Hs 683 cells incubated for 168 hrs by microscopic analysis; format: functional, cell-based; details: Hs 683, 168 h

Drug uptake [7]: Active
concentration at 8 h [9]: 2050 ng/g
concentration at 8 h [13]: 783 ng/g
concentration at 8 h [16]: 9.2 ng/g
Papp B→A at 2 h, 1 µM (MDR1): 4.09 ×10⁻⁶ cm/s
concentration at 8 h [23]: 1400 ng/g
concentration at 8 h [24]: 85.1 ng/g
IC50 (U-937): 14 µM
IC50 (A549): 9.68 µM
concentration at 8 h [35]: 193 ng/g
IC50 (Hs 683 [36]): 2.1 µM
SMILES: N#CC1(C(=O)NCCC2CCN(Cc3ccccc3)CC2)CC2(Br)c3ccccc3C1c1ccccc12 (racemic)
Activity [1]: Non-Toxic
inhibition (LN-229 [2]): Active
inhibition (U-251 [3]): Active
inhibition (H4 [4]): Active
Activity [5]: Non-Toxic
inhibition (U-251 [6]): Active
inhibition (LN-229 [8]): Active
fold change (FC) (H4 [10]): 25.31
Activity (U-251 [11]): ~20%
Activity [12]: Non-Toxic
Activity (LN-229 [14]): Active
Activity [15]: Non-Toxic
Activity [17]: Non-Toxic
inhibition (Hs 683 [18]): Active
inhibition (Hs 683 [19]): inactive
inhibition (U-251 [20]): inactive
inhibition (H4 [21]): Active
fold change (FC) (U-251 [22]): 166
Activity (LN-229 [25]): Active
fold change (FC) (U-251 [26]): 2.78
inhibition (Hs 683 [27]): Active
inhibition (H4 [28]): Active
inhibition (H4 [29]): Active
fold change (FC) (LN-229 [30]): 107.58
IC50 (LN-229 [31]): 4.99 µM
inhibition (H4 [32]): inactive
inhibition (LN-229 [33]): Active
inhibition (Hs 683 [34]): Active
